According to patent US20100016293A1, “Quinazolines and Related Heterocyclic Compounds, and Their Therapeutic Use” (priority 2006, published 2010):

The molecules below were run against T1, human H4 receptor (Homo sapiens, UniProt Q9H3N8) (assay: Radioligand displacement studies at the human H4 receptor ([3H]histamine)). Details: [3H]histamine displacement, membranes of HEK 293T cells transfected with human H4R, 1 hour at 22° C.
T1 construct: expressed in transfected cells; host or cells: HEK 293T cells, transient transfection with polyethyleneimine
Assay type: binding
Description: Radioligand displacement studies at the human H4 receptor were conducted. […] Approximately 4 million cells were seeded in a 10-cm dish and cultured overnight before transfection. For transfection of each dish of cells, the transfection mixture was prepared in 1 ml serum-free DMEM and contained 5 μg of human H4R receptor plasmid and 15 μl of 1 mg/ml 25 kDa linear polyethyleneimine (Polyscience, Inc., USA). The mixture was incubated for 10-15 minutes at room temperature before it was added into the monoloyer cell culture loaded with 5 ml fresh cell culture medium. Two days after transfection the cells were washed with PBS containing 1 mM EDTA, collected as pellet by centrifuging, and stored at −20° C. until use.
For the radioligand binding study, pellets of transfected cells were homogenized in H4R binding buffer (100 mM Tris-HCl, pH 7.4). For displacement binding assays, the membranes were typically incubated with 10^−4 to 10^−11 M of ligands (stock concentration was 10 mM 1 DMSO) in the presence of [^3H]histamine (Perkin-Elmer Life Science, Inc., USA) in a total volume of 200 μl. The reaction mixtures were incubated for 1 hour at room temperature (22° C.), and harvested on 96-well glass fiber C plates that were pretreated with 0.3% 750 kDa PEI. The binding assay data were analyzed using Prism 4.0 (Graphpad Software Inc., USA).

T1 sequence (Q9H3N8 whole entry): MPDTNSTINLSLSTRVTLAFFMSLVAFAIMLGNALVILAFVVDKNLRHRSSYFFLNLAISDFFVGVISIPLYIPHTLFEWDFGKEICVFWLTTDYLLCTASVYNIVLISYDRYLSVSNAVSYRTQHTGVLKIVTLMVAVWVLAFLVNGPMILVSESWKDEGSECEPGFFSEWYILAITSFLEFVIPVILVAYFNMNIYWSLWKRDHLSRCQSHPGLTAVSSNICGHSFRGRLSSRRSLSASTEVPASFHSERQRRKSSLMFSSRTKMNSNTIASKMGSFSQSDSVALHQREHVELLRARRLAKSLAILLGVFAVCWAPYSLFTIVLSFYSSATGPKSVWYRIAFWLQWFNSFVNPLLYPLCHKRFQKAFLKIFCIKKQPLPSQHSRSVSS

Compound | Ki [nM]
CN1CCN(c2nc(NCc3ccc(F)cc3)c3cc(Cl)ccc3n2)CC1 [VUF10513, 6-Chloro-N-(4-fluorobenzyl)-2-(4-methylpiperazin-1-yl)quinazolin-4-amine] | < 1000
CN1CCN(c2ccc3cc(Cl)ccc3n2)CC1 [VUF6959, 6-Chloro-2-(4-methyl-piperazinyl)-quinoline] | < 1000
COc1ccc(CNc2nc(N3CCN(C)CC3)nc3ccc(Cl)cc23)cc1 [VUF10505, 6-Chloro-N-(4-methoxybenzyl)-2-(4-methylpiperazin-1-yl)quinazolin-4-amine] | < 1000
CCOC(=O)CNc1nc(N2CCN(C)CC2)nc2ccc(Cl)cc12 [VUF10456, Ethyl 2-(6-chloro-2-(4-methylpiperazin-1-yl)quinazolin-4-ylamino)acetate] | < 1000
CN1CCN(c2nc(NCc3ccc(N)cc3)c3cc(Cl)ccc3n2)CC1 [VUF10509, N-(4-aminobenzyl)-6-chloro-2-(4-methylpiperazin-1-yl)quinazolin-4-amine] | < 1000
CN1CCN(c2nc(NCc3ccc(C#N)cc3)c3cc(Cl)ccc3n2)CC1 [VUF10553, 4-((6-Chloro-2-(4-methylpiperazin-1-yl)quinazolin-4-ylamino)methyl)benzonitrile] | < 1000
CN1CCN(c2nc(NCCc3ccc([N+](=O)[O-])cc3)c3cc(Cl)ccc3n2)CC1 [VUF10506, 6-Chloro-2-(4-methylpiperazin-1-yl)-N-(4-nitrophenethyl)quinazolin-4-amine] | < 1000
